Laboratory results taken from publication PMC4815908 (Bioorganic & medicinal chemistry letters, 2015).

Test system: P. falciparum 3D7 (chloroquine-sensitive)
Assay: in vitro growth inhibition assay, P. falciparum 3D7
Type: cell-based
Conditions: Plasmodium falciparum, 3D7, read-out: IC50 ± SEM 3D7

**Q.** For `[C-]#[N+]C(C)(C)C[C@@H]1C[C@H](C)[C@H]2CC[C@H](C)[C@@]3([N+]#[C-])CCC(=C)[C@@H]1[C@H]23` [compound 1, (−)-8,15-diisocyano-11(20)-amphilectene], which IC50 is on record?
**A.** The IC50 was 1.2 nM.
